Test results reported in US10550109B2, “Crystal form of brexpiprazole and preparation method therefor” (Zhejiang Huahai Pharmaceutical Co., Ltd, priority 2016, dated 2020).

Assay: Comparison of stability (water content over time) of brexpiprazole solid forms at 25° C. and 60% ambient humidity
Type: physicochemical
Procedure: The comparation of the stability of brexpiprazole in the crystal form I, the dihydrated crystal form, the anhydrous crystal form and the amorphous form is shown in Table 1. The test in Table 1 was carried out at 25° C. and 60% ambient humidity.

| SMILES | Water Content (after 1 month) [wt. %] | Water Content (after 2 months) [wt. %] | Water Content (after 3 months) [wt. %] | Water Content (initial) [wt. %] | Water Content (after 1 month) (dihydrate) [wt. %] | Water Content (after 2 months) (dihydrate) [wt. %] | Water Content (after 3 months) (dihydrate) [wt. %] | Water Content (initial) (dihydrate) [wt. %] |
| --- | --- | --- | --- | --- | --- | --- | --- | --- |
| O=c1ccc2ccc(OCCCCN3CCN(c4cccc5sccc45)CC3)cc2[nH]1 [Amorphous form, 7-{4-[4-(1-benzothiophen-4-yl)piperazin-1-yl]butoxy}-1H-quinolin-2-one] | 0.13 | 0.22 | 0.40 | 0.02 |  |  |  |  |
| O=c1ccc2ccc(OCCCCN3CCN(c4cccc5sccc45)CC3)cc2[nH]1 [Anhydrous crystal form, 7-[4-(4-benzo[b]thiophen-4-yl-piperazin-1-yl)butoxy]-1H-quinolin-2-one] | 0.09 | 0.21 | 0.30 | 0.02 |  |  |  |  |
| O=c1ccc2ccc(OCCCCN3CCN(c4cccc5sccc45)CC3)cc2[nH]1 [Crystal form I, 7-{4-[4-(1-benzothiophen-4-yl)piperazin-1-yl]butoxy}-1H-quinolin-2-one] | 1.27 | 1.26 | 1.27 | 1.24 |  |  |  |  |
| O=c1ccc2ccc(OCCCCN3CCN(c4cccc5sccc45)CC3)cc2[nH]1 [Dihydrated crystal form, 7-[4-(4-benzo[b]thiophen-4-yl-piperazin-1-yl)butoxy]-1H-quinolin-2-one dihydrate] |  |  |  |  | 6.90 | 7.10 | 7.50 | 6.74 |
